From publication PMC8359193, “Summary of reference chemicals evaluated by the fish short‐term reproduction assay, OECD TG229, using Japanese Medaka, Oryzias latipes” (Journal of Applied Toxicology, 2021)
Structures can show the parent of a compound that is named as a salt.

Test system: Japanese medaka (Oryzias latipes)
Experiment: Fish short-term reproduction assay (FSTRA, OECD TG229), 21-day flow-through exposure
Conditions: for Fertility rate (%) / Mortality (%) Female / Mortality (%) Male / Number of fertilized eggs / Number of total eggs / SSC Female / SSC Male / VTG (ng/mg of liver) Female / VTG (ng/mg of liver) Male: 21 days; for GSI Female / GSI Male / HSI Female / HSI Male / Length Female / Length Male / Weight Female / Weight Male: at completion of exposure
Method: The experimental studies on the FSTRA for the 16 chemicals were conducted in two laboratories in Japan, the National Institute for Environmental Studies (NIES, Lab‐1) and the Institute of Environmental Ecology, IDEA Consultants Inc. (Lab‐2), in accordance with OECD TG229 (OECD, [2012a]) (Table 1).
The NIES‐R strain of Japanese medaka (O. latipes), one of the orange‐red varieties, was used in all the 16 chemical studies. For the studies, healthy and mature male and female medakas at 16 ± 2 weeks old were selected from a single‐stock population, which were bred within the test facilities. The test fish were maintained in conditions similar to the assay for at least 7 days, and spawning status was checked during the acclimation period. On the day the chemical exposure commenced, to ensure balanced distribution of test fish between the treatment groups for the reproductive status of the fish, the replicate vessels (fish tanks), with each containing three male and female medaka, were distributed to each treatment and control group, for example, by a randomized block design based on the number of fertilized eggs laid in the last 5–7 days during the acclimation, in each assay.
The water solubility of the test chemical was also taken into consideration when deciding the highest test concentration. To set the lower concentrations, a spacing factor ranging between two and five was used. All assays included a dilution water control (DWC).
Test solutions at the selected concentrations were prepared by diluting a stock solution, which was prepared by an adequate method depending on the physicochemical properties of the test chemicals, for example, by simply mixing the test chemical in dilution water by stirring and/or sonicating for an appropriate time or by using a solid–liquid saturator. In the two laboratories, flow‐through exposure systems, in which a series of test solutions at the target concentrations can be continuously prepared and delivered to test vessels at controlled flow rates (Haselman et al., [2016]; Watanabe et al., [2017]), were used for the exposure experiments.
In the FSTRA, three mature adult males and females in a test vessel were exposed together to the test chemicals in flow‐through condition for 3 weeks. In all the assays, each treatment group, including the DWC group, contained four replicate tanks. During the exposure period, the fish were fed a sufficient amount of live brine shrimp nauplii (newly hatched Artemia sp.) for daily spawning ad libitum. Fecal material in the tanks was appropriately removed by siphoning after feeding. Water temperature of test solutions was recorded for at least one vessel in each treatment and control group every day and for all vessels at least once a week. Furthermore, dissolved oxygen and pH of test solutions were measured for all test vessels at least once a week. Mortality and abnormal behavior and appearance in the fish exposed to test chemicals were daily observed, and any fish that died were removed from the tank as soon as possible. To assess the reproductive status, all eggs females spawned were collected every day. At the completion of the chemical exposure, surviving fish in each tank were sampled.
The eggs females released on the bottom of the tank were collected by siphoning, and the egg clutches still on female abdomen were carefully picked from the body of the females captured using a small net. All the eggs collected were microscopically observed and separately counted for fertilized and unfertilized.

SMILES: C[C@]12CCC(=O)C[C@@H]1CC[C@@H]1[C@@H]2CC[C@]2(C)[C@@H](O)CC[C@@H]12 [DHT, 5α‐Dihydrotestosterone]
- effect on male SSC, in words (21-day exposure): statistical significance
- LOEC on female SSC (papillary process formation on anal fin) (21-day exposure, measured conc.): 1.03 µg/L
- Fertility rate (%) (measured conc. 0.063 μg/L): 94%
- Mortality (%) Female (measured conc. 0.063 μg/L): 0%
- Mortality (%) Male (measured conc. 0.063 μg/L): 0%
- Number of fertilized eggs (measured conc. 0.063 μg/L): 17
- Number of total eggs (measured conc. 0.063 μg/L): 18 ± 5.6 /female/day
- SSC Female (measured conc. 0.063 μg/L): 0 ± 0
- SSC Male (measured conc. 0.063 μg/L): 72 ± 12
- VTG (ng/mg of liver) Female (measured conc. 0.063 μg/L): 617 ± 374 ng/mg of liver
- VTG (ng/mg of liver) Male (measured conc. 0.063 μg/L): 1.6 ± 0.4 ng/mg of liver
- GSI Female (measured conc. 0.063 μg/L): 10.5%
- GSI Male (measured conc. 0.063 μg/L): 1.15%
- HSI Female (measured conc. 0.063 μg/L): 3.6%
- HSI Male (measured conc. 0.063 μg/L): 1.5%
- Length Female (measured conc. 0.063 μg/L): 32.9 mm
- Length Male (measured conc. 0.063 μg/L): 33.4 mm
- Weight Female (measured conc. 0.063 μg/L): 354 mg
- Weight Male (measured conc. 0.063 μg/L): 377 mg
- Fertility rate (%) (measured conc. 2.97 μg/L): 84%
- Mortality (%) Female (measured conc. 2.97 μg/L): 0%
- Mortality (%) Male (measured conc. 2.97 μg/L): 0%
- Number of fertilized eggs (measured conc. 2.97 μg/L): 12
- Number of total eggs (measured conc. 2.97 μg/L): 14 ± 3.7 /female/day
- SSC Female (measured conc. 2.97 μg/L): 22 ± 14
- SSC Male (measured conc. 2.97 μg/L): 78 ± 16
- VTG (ng/mg of liver) Female (measured conc. 2.97 μg/L): 587 ± 306 ng/mg of liver
- VTG (ng/mg of liver) Male (measured conc. 2.97 μg/L): 1.4 ± 0.7 ng/mg of liver
- GSI Female (measured conc. 2.97 μg/L): 21.1%
- GSI Male (measured conc. 2.97 μg/L): 1.21%
- HSI Female (measured conc. 2.97 μg/L): 3.8%
- HSI Male (measured conc. 2.97 μg/L): 1.7%
- Length Female (measured conc. 2.97 μg/L): 32.8 mm
- Length Male (measured conc. 2.97 μg/L): 33.6 mm
- Weight Female (measured conc. 2.97 μg/L): 425 mg
- Weight Male (measured conc. 2.97 μg/L): 411 mg
- effect on fecundity (number of total eggs), in words (within the test concentrations, 21-day exposure): significantly reduced

SMILES: O=C(c1ccc(OCCN2CCCCC2)cc1)c1c(-c2ccc(O)cc2)sc2cc(O)ccc12 [RAL, Raloxifene hydrochloride]
- LOEC for decrease of VTG in females (hepatic VTG, 21-day exposure, measured conc.): 721 µg/L
- Fertility rate (%) (measured conc. 63.9 μg/L): 87%
- Mortality (%) Female (measured conc. 63.9 μg/L): 0%
- Mortality (%) Male (measured conc. 63.9 μg/L): 0%
- Number of fertilized eggs (measured conc. 63.9 μg/L): 16
- Number of total eggs (measured conc. 63.9 μg/L): 18 ± 4.2 /female/day
- SSC Female (measured conc. 63.9 μg/L): 0 ± 0
- VTG (ng/mg of liver) Male (measured conc. 63.9 μg/L): 19.6 ± 5.7 ng/mg of liver
- GSI Female (measured conc. 63.9 μg/L): 9.6%
- GSI Male (measured conc. 63.9 μg/L): 1.03%
- HSI Female (measured conc. 63.9 μg/L): 3.2%
- HSI Male (measured conc. 63.9 μg/L): 1.5%
- Length Female (measured conc. 63.9 μg/L): 36.9 mm
- Length Male (measured conc. 63.9 μg/L): 37.5 mm
- Weight Female (measured conc. 63.9 μg/L): 555 mg
- Weight Male (measured conc. 63.9 μg/L): 511 mg
- Fertility rate (%) (measured conc. 203 μg/L): 86%
- Mortality (%) Female (measured conc. 203 μg/L): 0%
- Mortality (%) Male (measured conc. 203 μg/L): 0%
- Number of fertilized eggs (measured conc. 203 μg/L): 14
- Number of total eggs (measured conc. 203 μg/L): 16 ± 2.6 /female/day
- SSC Female (measured conc. 203 μg/L): 0 ± 0
- SSC Male (measured conc. 203 μg/L): 118 ± 15
- VTG (ng/mg of liver) Female (measured conc. 203 μg/L): 652 ± 82.4 ng/mg of liver
- VTG (ng/mg of liver) Male (measured conc. 203 μg/L): 30.2 ± 11.4 ng/mg of liver
- GSI Female (measured conc. 203 μg/L): 10.2%
- GSI Male (measured conc. 203 μg/L): 0.97%
- HSI Female (measured conc. 203 μg/L): 2.9%
- HSI Male (measured conc. 203 μg/L): 1.6%
- Length Female (measured conc. 203 μg/L): 37.8 mm
- Length Male (measured conc. 203 μg/L): 38.4 mm
- Weight Female (measured conc. 203 μg/L): 600 mg
- Weight Male (measured conc. 203 μg/L): 550 mg
- Fertility rate (%) (measured conc. 721 μg/L): 82%
- Mortality (%) Female (measured conc. 721 μg/L): 0%
- Mortality (%) Male (measured conc. 721 μg/L): 0%
- Number of fertilized eggs (measured conc. 721 μg/L): 14
- Number of total eggs (measured conc. 721 μg/L): 17 ± 2.6 /female/day
- SSC Female (measured conc. 721 μg/L): 0 ± 0
- VTG (ng/mg of liver) Female (measured conc. 721 μg/L): 368 ± 68.4 ng/mg of liver
- VTG (ng/mg of liver) Male (measured conc. 721 μg/L): 24.1 ± 13.7 ng/mg of liver
- GSI Female (measured conc. 721 μg/L): 10.5%
- GSI Male (measured conc. 721 μg/L): 0.96%
- HSI Female (measured conc. 721 μg/L): 3.4%
- HSI Male (measured conc. 721 μg/L): 1.5%
- Length Female (measured conc. 721 μg/L): 38.8 mm
- Length Male (measured conc. 721 μg/L): 39.0 mm
- Weight Female (measured conc. 721 μg/L): 638 mg
- Weight Male (measured conc. 721 μg/L): 612 mg
- Fertility rate (%) (measured conc. 2080 μg/L): 72%
- Mortality (%) Female (measured conc. 2080 μg/L): 0%
- Mortality (%) Male (measured conc. 2080 μg/L): 0%
- Number of fertilized eggs (measured conc. 2080 μg/L): 14
- Number of total eggs (measured conc. 2080 μg/L): 19 ± 2.5 /female/day
- SSC Female (measured conc. 2080 μg/L): 0 ± 0
- VTG (ng/mg of liver) Female (measured conc. 2080 μg/L): 305 ± 99.8 ng/mg of liver
- VTG (ng/mg of liver) Male (measured conc. 2080 μg/L): 17.2 ± 3.5 ng/mg of liver
- GSI Female (measured conc. 2080 μg/L): 11.5%
- GSI Male (measured conc. 2080 μg/L): 1.12%
- HSI Female (measured conc. 2080 μg/L): 4.7%
- HSI Male (measured conc. 2080 μg/L): 1.7%
- Length Female (measured conc. 2080 μg/L): 38.8 mm
- Length Male (measured conc. 2080 μg/L): 37.1 mm
- Weight Female (measured conc. 2080 μg/L): 675 mg
- Weight Male (measured conc. 2080 μg/L): 506 mg
